# Peptide text beside a SMILES is read from it.
# Tested on: HCEC cells
# Assay: MTT assay (cell viability)
# Format: cell-based, Human
# Procedure: Human corneal epithelial cell line, HCEC, was cultured in complete KSF containing keratinocyte-serum free medium, 5 ng/ml human recombinant EGF, 0.05 mg/ml bovine pituitary extract, 0.005 mg/ml insulin and 500 ng/ml hydrocortisone under 5% CO2 at 37° C.
# Cells (2×10^4) in 1 ml complete KSF were seeded in 12-well plates with or without Peptide NO. 12. Seventy microliters of 5 mg/ml 3-(4,5-dimethyl-2-thiazolyl)-2,5-diphenyl-2H-tetrazolium bromide solution (MTT; Sigma) was added to each well for the indicated times and incubated at 37° C. for 3 hours, after which 700 μl 10% SDS in 0.01 N HCl was added to dissolve the MTT formazan crystals. The resultant optical density was measured spectrophotometrically at dual wavelengths, 550 and 630 nm.
smiles,measurement,setting,value
"CC(C)C[C@H](NC(=O)[C@@H]1CCCN1C(=O)[C@H](CC(N)=O)NC(=O)[C@@H](N)CCCNC(=N)N)C(=O)N[C@@H](CCC(=O)O)C(=O)N[C@@H](CCC(=O)O)C(=O)N[C@H](C(=O)O)[C@@H](C)O [Peptide NO. 12, ArgAsnProLeuGluGluThr] (H-RNPLEET-OH)",viability of HCEC cells,"24 hours, 5, 10, 25 and 50 μg/ml",did not significantly affect viability
same,viability of HCEC cells,"48 hours, 5, 10, 25 and 50 μg/ml",did not significantly affect viability

# Reference: patent US20190100555A1, “EYE-CARE PEPTIDE, ITS COMPOSITION AND METHOD OF USING THE SAME” (PRO SUNFUN BIOTECH RESEARCH AND DEVELOPMENT CO., LTD., priority 2017, published 2019)
